According to US20150315218A1, “SALTS OF PRODRUGS OF PIPERAZINE AND SUBSTITUTED PIPERIDINE ANTIVIRAL AGENTS” (Bristol-Myers Squibb Company, priority 2004, published 2015):
Where a name gives a salt, the structure may show the parent alone. Read-outs that look alike come from different tables or passages of the source.

What was measured:
[1] = biological target: T1, human placental alkaline phosphatase (ALP) (Homo sapiens, UniProt P05187); test: Hydrolysis of prodrug in human placental ALP solutions; format: in vitro ADME; conditions: human placental ALP solution, 37°C, 120 min, read-out: t1/2 (min) of prodrug disappearance
T1 construct: To study the hydrolysis of lab in a purified form of human ALP, Iab was incubated in human placental ALP solutions; host or cells: human placenta (inferred from the name and from 'ALP derived from humans')
T1 sequence (P05187 23-506 limits assumed): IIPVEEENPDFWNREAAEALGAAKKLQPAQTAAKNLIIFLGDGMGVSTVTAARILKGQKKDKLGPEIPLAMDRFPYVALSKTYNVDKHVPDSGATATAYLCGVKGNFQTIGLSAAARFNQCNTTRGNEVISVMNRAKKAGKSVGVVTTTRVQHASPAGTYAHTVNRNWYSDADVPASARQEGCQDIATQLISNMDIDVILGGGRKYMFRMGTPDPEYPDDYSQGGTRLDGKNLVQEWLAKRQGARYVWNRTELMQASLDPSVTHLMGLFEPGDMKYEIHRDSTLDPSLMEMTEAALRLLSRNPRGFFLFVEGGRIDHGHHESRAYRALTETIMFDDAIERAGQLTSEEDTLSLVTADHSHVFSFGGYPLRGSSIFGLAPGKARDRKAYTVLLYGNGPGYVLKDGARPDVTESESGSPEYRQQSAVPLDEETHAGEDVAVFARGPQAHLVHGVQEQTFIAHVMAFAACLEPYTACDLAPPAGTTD
Description: Solid human placental ALP was obtained from Sigma (P-3895, St. Louis, Mo.). […] Solutions of 100 and 10 units/L were obtained by serial dilution. Iab was incubated in the 10, 100 and 1000 units/L solutions (n=2) at 37° C. for 2 hr. The starting concentration of Iab in the incubation was 10 μM. Aliquots of 100 μL samples were taken at pre-determined times and added into K2EDTA microtainers followed by the addition of 200 μL of acetonitrile.
Solid human placental ALP was obtained from Sigma (P-3895, St. Louis, Mo.). […] Solutions of 100 and 10 units/L were obtained by serial dilution. Ibb was incubated in the 10, 100 and 1000 units/L solutions (n=2) at 37° C. for 2 hr. The starting concentration of Ibb in the incubation was 10 μM. Aliquots of 100 μL samples were taken at pre-determined times and added into K2EDTA microtainers followed by the addition of 200 μL of acetonitrile.
Solid human placental ALP was obtained from Sigma (P-3895, St. Louis, Mo.). […] Solutions of 100 and 10 units/L were obtained by serial dilution. Icb was incubated in the 10, 100 and 1000 units/L solutions (n=2) at 37° C. for 2 hr. The starting concentration of Icb in the incubation was 10 μM. Aliquots of 100 μL samples were taken at pre-determined times and added into K2EDTA microtainers followed by the addition of 200 μL of acetonitrile. The supernatant was analyzed for both Icb and IVe by LC/MS/MS.

[2] = system: dog hepatocytes; test: Hydrolysis of prodrug in hepatocytes (dog); format: in vitro ADME; conditions: dog hepatocytes, qualitative
Description: (§1) The in vitro intrinsic clearance of Ibb in hepatocytes (Clint) was calculated as follows: Clint(μL/min/million cells)=Rate/CE where Rate is the rate of metabolism in hepatocytes (pmol/min/million cells), and CE is the concentration of Ibb in the incubation. The in vitro intrinsic clearance of Icb in hepatocytes (Clint) was calculated as follows: Clint(μL/min/million cells)=Rate/CE where Rate is the rate of metabolism in hepatocytes (pmol/min/million cells), and CE is the concentration of Icb in the incubation.

[3] = system: monkey hepatocytes; test: Hydrolysis of prodrug in hepatocytes (monkey); format: in vitro ADME; conditions: monkey hepatocytes, qualitative
Description: as §1

[4] = Stability of prodrug in fresh EDTA blood (dog); conditions: dog blood, 37°C, 60 min (Iab) or 90 min (Ibb, Icb)
[5] = in vitro; conditions: rat, serum
Description: (§2) The stability of Iab was studied in fresh blood and serum from rat, dog, monkey and human (n=2). The blood was collected in vacutainers containing K2EDTA (Becton Dickinson, Franklin Lakes, N.J.). The serum was collected in vacutainers containing no anticoagulant. Iab was incubated at a starting concentration of approximately 10 μM for 60-90 min at 37° C. Serial samples were taken at the pre-determined times. Aliquots of blood samples (200 μL) were first mixed with 100 μL of water followed by 400 μL of acetonitrile. The serum samples (50 μL) were added into microtainers containing K2EDTA (Becton Dickinson, Franklin Lakes, N.J.) followed by the addition of 100 μL of acetonitrile. The supernatant was analyzed for both Iab and IVa by LC/MS/MS. The stability of Ibb was studied in fresh blood and serum from rat, dog, monkey and human (n=2). The blood was collected in vacutainers containing K2EDTA (Becton Dickinson, Franklin Lakes, N.J.). The serum was collected in vacutainers containing no anticoagulant. Ibb was incubated at a starting concentration of approximately 15 μM for 90 min at 37° C. Serial samples were taken at the pre-determined times. Aliquots of blood samples (200 μL) were first mixed with 100 μL of water followed by 400 μL of acetonitrile. The serum samples (50 μL) were added into microtainers containing K2EDTA (Becton Dickinson, Franklin Lakes, N.J.) followed by the addition of 100 μL of acetonitrile. […] The stability of Icb was studied in fresh blood and serum from rat, dog, monkey and human (n=2). The blood was collected in vacutainers containing K2EDTA (Becton Dickinson, Franklin Lakes, N.J.). The serum was collected in vacutainers containing no anticoagulant. Icb was incubated at a starting concentration of approximately 10 μM for 90 min at 37° C. Serial samples were taken at the pre-determined times. Aliquots of blood samples (200 μL) were first mixed with 100 μL of water followed by 400 μL of acetonitrile. The serum samples (50 μL) were added into microtainers containing K2EDTA (Becton Dickinson, Franklin Lakes, N.J.) followed by the addition of 100 μL of acetonitrile.

[6] = Stability (hydrolysis) of prodrug in fresh serum (monkey); conditions: Monkey Serum
Description: as §2

[7] = Stability of prodrug in Tris-HCl buffer
Description: The stability of Iab was also evaluated, as described above, in Tris-HCl buffer (0.1 M, pH 7.5). The stability of Ibb was also evaluated, as described above, in Tris-HCl buffer (0.1 M, pH 7.5). The stability of Icb was also evaluated, as described above, in Tris-HCl buffer (0.1 M, pH 7.5).

[8] = Stability (hydrolysis) of prodrug in fresh serum (human); conditions: Human Serum

COc1cnc(OC)c2c1c(C(=O)C(=O)N1CCN(C(=O)c3ccccc3)CC1)cn2COP(=O)(O)O [Iab, {3-[(4-benzoylpiperazin-1-yl)(oxo)acetyl]-4,7-dimethoxy-1H-pyrrolo[2,3-c]pyridin-1-yl}methyl dihydrogen phosphate, L-lysine salt (1:1)]
half-life at 10 μM ([1]; pH 7.5, ALP Activity 10 Units/L): 186 min | half-life at 10 μM ([1]; pH 7.5, ALP Activity 100 Units/L): 14 min | half-life at 10 μM ([1]; pH 7.5, ALP Activity 1000 Units/L): 1.4 min | hydrolysis in the presence of hepatocytes [2]: hydrolyzed | hydrolysis in the presence of hepatocytes [3]: hydrolyzed | conversion of prodrug to parent in blood containing EDTA [4]: approximately 6% | half-life at 10 μM [5]: 80 min | Iab / IVa Formed ([6]; 37°C, 0 min): 9.0 µM | Iab / IVa Formed ([6]; 15 min): 7.3 µM | Iab / IVa Formed ([6]; 30 min): 6.8 µM | Iab / IVa Formed ([6]; 45 min): 6.5 µM | Iab / IVa Formed ([6]; 60 min): 6.3 µM | Iab / IVa Formed ([6]; 90 min): 6.3 µM | stability / conversion of prodrug to parent in Tris-HCl buffer ([7]; 37°C, 60 min (Iab) or 90 min (Ibb, Icb)): stable | Iab / IVa Formed ([7]; Tris-HCl buffer (0.1 M, pH 7.5), 37°C, 0 min): 10 µM | Iab / IVa Formed ([7]; Tris-HCl buffer, 20 min): 10 µM | Iab / IVa Formed ([7]; Tris-HCl buffer, 40 min): 7.6 µM | Iab / IVa Formed ([7]; Tris-HCl buffer, 60 min): 10 µM | Iab / IVa Formed ([8]; 37°C, 0 min): 9.5 µM | Iab / IVa Formed ([8]; 15 min): 9.2 µM | Iab / IVa Formed ([8]; 30 min): 9.0 µM | Iab / IVa Formed ([8]; 45 min): 9.6 µM | Iab / IVa Formed ([8]; 60 min): 9.1 µM | Iab / IVa Formed ([8]; 90 min): 9.4 µM
